Results as given in paper PMC11063903, “Engineering a human P2X2 receptor with altered ligand selectivity in yeast” (The Journal of Biological Chemistry, 2024).

Target: T1, P2X2 A304W (Homo sapiens, UniProt Q9UBL9, A304W)
T1 construct: expressed in transfected cells; host or cells: S. cerevisiae BY4741 background
T1 sequence (Q9UBL9 1-471 A304W): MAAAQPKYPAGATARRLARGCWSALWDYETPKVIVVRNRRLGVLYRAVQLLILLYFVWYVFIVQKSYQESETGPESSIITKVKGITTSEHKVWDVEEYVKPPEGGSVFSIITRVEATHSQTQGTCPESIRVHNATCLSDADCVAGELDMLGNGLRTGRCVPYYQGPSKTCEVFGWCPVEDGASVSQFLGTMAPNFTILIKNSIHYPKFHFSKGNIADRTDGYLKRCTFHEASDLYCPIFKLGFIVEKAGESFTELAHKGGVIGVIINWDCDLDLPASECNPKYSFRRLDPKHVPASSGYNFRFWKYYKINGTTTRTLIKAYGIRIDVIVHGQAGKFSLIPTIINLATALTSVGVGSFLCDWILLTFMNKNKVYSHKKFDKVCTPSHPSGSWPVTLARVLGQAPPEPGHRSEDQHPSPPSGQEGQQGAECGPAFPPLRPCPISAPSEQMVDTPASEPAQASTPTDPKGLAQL
Experiment: Fast GCaMP-mScarletI assay in yeast, P2X2 A304W
Type: cell-based
Details: site-saturation screen, 500 μM ATP, ± sd

Structure (SMILES): Nc1ncnc2c1ncn2[C@@H]1O[C@H](COP(=O)(O)OP(=O)(O)OP(=O)(O)O)[C@@H](O)[C@H]1O [ATP]
- signal, % of WT signaling: 125 ± 47%
